According to patent publication US9302999B2, “Substituted triazoles as herbicides” (E. I. DU PONT DE NEMOURS AND COMPANY, priority 2012, dated 2016):

Legend:
Assay type in all cases: in vivo
[1] = system: barnyardgrass (Echinochloa crus-galli); assay: Test A pre-/postemergence: barnyardgrass
How it was run: (§1)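 Visual 0–100 injury ratings (0 no effect, 100 complete control) taken about ten days after treatment, relative to untreated controls. Preemergence treatment was a directed soil spray; postemergence plants were 2–10 cm tall at one- to two-leaf stage. Soil: loam/sand blend.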

[2] = system: crabgrass, large (large crabgrass, Digitaria sanguinalis); assay: Test A pre-/postemergence: crabgrass, large
How it was run: as §1

[3] = system: foxtail, giant (giant foxtail, Setaria faberii); assay: Test A pre-/postemergence: foxtail, giant
How it was run: as §1

[4] = system: morningglory (Ipomoea spp.); assay: Test A pre-/postemergence: morningglory
How it was run: as §1

[5] = system: pigweed (Amaranthus retroflexus); assay: Test A pre-/postemergence: pigweed
How it was run: as §1

[6] = system: velvetleaf (Abutilon theophrasti); assay: Test A pre-/postemergence: velvetleaf
How it was run: as §1

[7] = system: wheat (Triticum aestivum); assay: Test A pre-/postemergence: wheat
How it was run: as §1

[8] = system: corn (Zea mays); assay: Test A pre-/postemergence: corn
How it was run: as §1

[9] = system: rice (Oryza sativa); assay: Test B flooded paddy: rice; conditions: Flood; 250 g ai/ha; applied to paddy water at 2-leaf stage; visually evaluated after 13 to 15 days
Experimental: (§2) Seeds selected from rice (Oryza sativa), sedge, umbrella (small-flower umbrella sedge Cyperus difformis), ducksalad (Heteranthera limosa), and barnyardgrass (Echinochloa crus-galli) were grown to the 2-leaf stage for testing. At time of treatment, test pots were flooded to 3 cm above the soil surface, treated by application of test compounds directly to the paddy water, and then maintained at that water depth for the duration of the test.
(§3) Treated plants and controls were maintained in a greenhouse for 13 to 15 days, after which time all species were compared to controls and visually evaluated. Plant response ratings, summarized in Table B, are based on a scale of 0 to 100 where 0 is no effect and 100 is complete control. A dash (-) response means no test result.

[10] = system: sedge, umbrella (small-flower umbrella sedge Cyperus difformis); assay: Test B flooded paddy: sedge, umbrella; conditions: Flood; 250 g ai/ha; applied to paddy water at 2-leaf stage; visually evaluated after 13 to 15 days
Experimental: as §2, §3

[11] = system: ducksalad (Heteranthera limosa); assay: Test B flooded paddy: ducksalad; conditions: Flood; 250 g ai/ha; applied to paddy water at 2-leaf stage; visually evaluated after 13 to 15 days
Experimental: as §2, §3

[12] = system: barnyardgrass (Echinochloa crus-galli); assay: Test B flooded paddy: barnyardgrass; conditions: Flood; 250 g ai/ha; applied to paddy water at 2-leaf stage; visually evaluated after 13 to 15 days
Experimental: as §2, §3

[13] = Postemergence, 125 g ai/ha, 0 to 100 scale, 0 is no effect, 100 is complete control
[14] = Postemergence, 500 g ai/ha, visual rating on 0 to 100 scale (0 no effect, 100 complete control), approximately ten days
[15] = Preemergence, 125 g ai/ha, 0 to 100 scale (0 no effect, 100 complete control)
[16] = Preemergence, 500 g ai/ha, 0 to 100 scale, 0 is no effect, 100 is complete control
[17] = Preemergence, 125 g ai/ha, 0 to 100 scale where 0 is no effect and 100 is complete control
[18] = Preemergence, 500 g ai/ha, 0 to 100 scale (0 no effect, 100 complete control)

Cc1nn(-c2ccnc(F)c2)nc1C(=O)c1cccc(C(F)(F)F)c1 [Compound 3]
Barnyardgrass plant response rating [1, 13]: 30
Barnyardgrass plant response rating [1, 14]: 50
Plant response rating, Barnyardgrass [1, 15]: 10
Plant response rating, Barnyardgrass [1, 16]: 50
Crabgrass, Large plant response rating [2, 13]: 40
Crabgrass, Large plant response rating [2, 14]: 90
Plant response rating, Crabgrass, Large [2, 15]: 90
Plant response rating, Crabgrass, Large [2, 16]: 100
Foxtail, Giant plant response rating [3, 13]: 30
Foxtail, Giant plant response rating [3, 14]: 90
Plant response rating, Foxtail, Giant [3, 15]: 90
Plant response rating, Foxtail, Giant [3, 16]: 100
Morningglory plant response rating [4, 13]: 30
Morningglory plant response rating [4, 14]: 100
Plant response rating, Morningglory [4, 15]: 0
Plant response rating, Morningglory [4, 16]: 50
Pigweed plant response rating [5, 13]: 90
Pigweed plant response rating [5, 14]: 100
Plant response rating, Pigweed [5, 15]: 70
Plant response rating, Pigweed [5, 16]: 100
Velvetleaf plant response rating [6, 13]: 50
Velvetleaf plant response rating [6, 14]: 60
Plant response rating, Velvetleaf [6, 15]: 0
Plant response rating, Velvetleaf [6, 16]: 10
Wheat plant response rating [7, 13]: 30
Wheat plant response rating [7, 14]: 40
Plant response rating, Wheat [7, 15]: 0
Plant response rating, Wheat [7, 16]: 40
Corn plant response rating [8, 13]: 20
Corn plant response rating [8, 14]: 30
Plant response rating, Corn [8, 15]: 0
Plant response rating, Corn [8, 16]: 10
Plant response rating, Rice (0 to 100 scale, 0 is no effect, 100 is complete control) [9]: 0
Plant response rating, Sedge, Umbrella (0 to 100 scale, 0 is no effect, 100 is complete control) [10]: 0
Plant response rating, Ducksalad (0 to 100 scale, 0 is no effect, 100 is complete control) [11]: 0
Plant response rating, Barnyardgrass (0 to 100 scale, 0 is no effect, 100 is complete control) [12]: 0

CC(C)c1nn(-c2ccc(F)cc2)nc1Cc1ccnc(C(F)(F)F)c1 [Compound 151]
Plant response rating, Barnyardgrass [1, 13]: 10
Barnyardgrass plant response rating [1, 14]: 20
Plant response rating, Barnyardgrass [1, 17]: 0
Plant response rating, Barnyardgrass [1, 18]: 0
Plant response rating, Crabgrass, Large [2, 13]: 10
Crabgrass, Large plant response rating [2, 14]: 30
Plant response rating, Crabgrass, Large [2, 17]: 0
Plant response rating, Crabgrass, Large [2, 18]: 10
Plant response rating, Foxtail, Giant [3, 13]: 10
Foxtail, Giant plant response rating [3, 14]: 30
Plant response rating, Foxtail, Giant [3, 17]: 0
Plant response rating, Foxtail, Giant [3, 18]: 20
Plant response rating, Morningglory [4, 13]: 40
Morningglory plant response rating [4, 14]: 70
Plant response rating, Morningglory [4, 17]: 0
Plant response rating, Morningglory [4, 18]: 0
Plant response rating, Pigweed [5, 13]: 60
Pigweed plant response rating [5, 14]: 80
Plant response rating, Pigweed [5, 17]: 10
Plant response rating, Pigweed [5, 18]: 60
Plant response rating, Velvetleaf [6, 13]: 30
Velvetleaf plant response rating [6, 14]: 50
Plant response rating, Velvetleaf [6, 17]: 0
Plant response rating, Velvetleaf [6, 18]: 0
Plant response rating, Wheat [7, 13]: 0
Wheat plant response rating [7, 14]: 0
Plant response rating, Wheat [7, 17]: 0
Plant response rating, Wheat [7, 18]: 0
Plant response rating, Corn [8, 13]: 10
Corn plant response rating [8, 14]: 20
Plant response rating, Corn [8, 17]: 0
Plant response rating, Corn [8, 18]: 0
Plant response rating, Rice (0 to 100 scale, 0 is no effect, 100 is complete control) [9]: 30
Plant response rating, Sedge, Umbrella (0 to 100 scale, 0 is no effect, 100 is complete control) [10]: 0
Plant response rating, Ducksalad (0 to 100 scale, 0 is no effect, 100 is complete control) [11]: 0
Plant response rating, Barnyardgrass (0 to 100 scale, 0 is no effect, 100 is complete control) [12]: 0
